Test results from US20090246248A1, “COATING COMPOSITIONS HAVING IMPROVED PERFORMANCE” (priority 2008, published 2009).
Square brackets hold non-standard residues; d marks the D form. Ends that are not written are not given here. Aun = NCCCCCCCCCCC(=O)O

Columns and labels:
[1] = type: binding; settings: 18 hour incubation in 10% BSA+10 mM guanidinium chloride; FIG. 1
From the text: In this example, illustrated are unexpected beneficial properties of the composition of the invention, including but not limited to, one or more improved biophysical properties. Such one or more unexpected beneficial properties of a composition of the invention may comprise an increase in stability. An increase in stability may comprise any one or more of resistance to chemical denaturation, resistance to proteolytic degradation, improved retention to a substrate (e.g., resistance to being competed off a substrate to which it is bound, such as by proteins or other biomolecules found in body tissues). Thus, to ascertain a beneficial property of a composition of the invention, it is compared to the properties of a component of the composition-namely, a substrate-binding peptide by itself (e.g., without fatty acid covalently coupled thereto). An assay was developed that, from our direct comparisons (see, e.g., discussion of FIG. 2 below, and Example 7 herein), mimicked the effect of incubation of substrate-binding peptide with human plasma on stability of binding of a substrate-binding peptide to its substrate. The assay utilized incubations in the presence of 10% bovine serum album (BSA) with 10 mM guanidinium chloride. The high BSA concentration mimics the elevated albumin content of human plasma, and the guanidinium chloride is used to compete with any charged interactions involved in binding of the substrate-binding peptide to its substrate.
In this assay, two immunoassay plates were prepared for a “side-by-side” comparison of binding of a test sample (substrate-binding peptide or composition of the invention) to its substrate with or without the presence of 10% BSA with 10 mM guanidinium chloride. The wells of each 96-well polypropylene plate were incubated with 350 μl BSA 1% in PBS for 30 minutes at 20° C. with 500 rpm shaking. To each well was added one acetone-cleaned 3/32″ 316LVM stainless steel bead, followed by addition of dilutions in PBS of the test sample in a range of concentrations starting from 10 μM. Final volume in each well was 200 μl. The plates were incubated for 1 hour at 20° C. with 500 rpm shaking to allow for the binding to occur. The beads were washed 3 times with 250 μl PBS using a plate washer. […]
In the immunoassay for detecting binding without the presence of 10% BSA with 10 mM guanidinium chloride, added to each well was 200 μl of streptavidin AP (AP is alkaline phosphatase) at 1/200 in TBS+1% BSA. […] When color has developed, each well was read at OD405 nm in endpoint mode using a plate reader. […] When color has developed, the wells were read at OD405 nm in endpoint mode using a plate reader. […]

[2] = Critical micelle concentration (methyl orange assay); type: physicochemical; settings: pH 7 PBS, A484
Method: Formation of a composition of the invention, and evidence of macromolecular network formation, may be monitored or quantified by any means known in the art. In this example, macromolecular formation was detected using a standard assay for determining critical micelle concentration (“CMC”). In this assay, a solution containing the composition of the invention (in a range of concentrations in pH 7 phosphate buffered saline (“PBS”)) was mixed with a solution of methyl orange (0.04 mM in PBS), and the absorbance of the mixture was measured at 484 nm (A484). CMC is the concentration at which a sharp decrease in absorbance at A484 is observed, a change in the optical properties of methyl orange when trapped in a hydrophobic phase, such as caused by self-association as a macromolecular network (Table 7, “CMC”). Also included in this assay were an assay control peptide having an amino acid sequence of SEQ ID NO:122 (Table 7, “Control”), and compound 119 (a PEGylated peptide, the peptide having an amino acid sequence of SEQ ID NO:122, as described in more detail in Example 6 herein).

[3] = Stent flow model, retention of radiolabelled composition on coated stent; type: binding; settings: 5 ml/min, 37° C.
Method: In this example, an in vitro model for in vivo stability on a medical device comprising a stent was performed. The stent flow model included a “circulatory system” comprising a peristaltic pump and clear silicone tubing into which is placed a stent (8 mm, stainless steel) coated with a composition according to the invention. Coating of the stents was accomplished by incubating the stents with radiolabelled composition 132 (specific activity 2,400 cpm/pmole at 20 μM in PBS) for 1 hour at 20° C., followed by extensive washing with buffer. […] In another variation of the stent flow model, 10% BSA+10 mM guanidinium chloride was circulated through the circulatory system at a flow rate of 5 ml/min for 18 hours at 37° C. After circulation in the respective variations of the stent flow model, the coated stents were then counted for radioactivity. To serve as an assay “control”, some coated stents were not placed in the stent flow model, but rather counted for radioactive counts to provide a reference from which percent retention could be calculated for those coated stents included in the stent flow model.

[4] = Binding assay for glycopeptide antibiotic (biotinylated vancomycin, immobilized peptide); settings: peptide immobilized on streptavidin plate
Method: A typical binding assay for glycopeptide antibiotic was performed according to the following procedure. Briefly, synthetic peptides comprising an amino acid sequence to be characterized for binding were biotinylated to facilitate immobilization on streptavidin-coated 96-well plates. The microtiter plates were coated with streptavidin by adding 50 μl of a 10 μg/ml streptavidin solution in 0.1 M NaHCO3, and incubating the plates for at least 3 hours. The plate wells were blocked by adding 150 μl of a 1% BSA solution in 0.1 NaHCO3 with incubation for at least 2 hours, and the plates were stored at 4° C. until needed. Before use, the streptavidin plates were washed extensively in buffer-T. Added per well was peptide (100 μl 0.1 μM peptide in buffer-T), and then incubated for 30 minutes at room temperature with shaking. 200 μl of 0.5 mM biotin in buffer-T was added to block the remaining streptavidin sites, and plates were incubated for 15 minutes at room temperature. Plates were then washed with buffer-T to remove the excess biotin and peptide. Serial dilutions of biotinylated glycopeptide antibiotic in buffer-T were added (100 μl) to each well, representing a range of concentrations between 100 μM and […]. Plates were incubated for 30 minutes at room temperature with shaking prior to washing several times with buffer-T. Glycopeptide antibiotic was then detected by adding 100 μl of a diluted streptavidin-alkaline phosphatase conjugate to each well and incubated at room temperature for 30 minutes. Excess conjugate was removed by repeated washes with buffer-T, and the amount of alkaline phosphatase remaining in the well was detected using a pNPP (para-nitrophenylphosphate) colorimetric enzymatic assay. The relative amount of glycopeptide antibiotic captured by the peptides was determined by measuring the absorbance at 405 nm of the colored product of the alkaline phosphatase reaction. The EC50 was determined for each peptide relative to the binding affinity for the glycopeptide antibiotic used in the assay, as shown in Table 8 (with vancomycin as a representative glycopeptide antibiotic).

[5] = tested on: Staphylococcus aureus strain MZ100; assay: Tibia pin assay (coated titanium pins with vancomycin, bacterial culture); type: cell-based; design: key: —: no cfus; too many cfus to count, as they converge into one spot; settings: 3 hours 37° C.
From the text: In this assay, titanium pins were used as a model for tibia pins. Briefly, sterile pins were first coated with biofunctional composition (“SEQ ID NO:124-linker-SEQ ID NO:122”) comprising a substrate-binding peptide having binding specificity for vancomycin (“SEQ ID NO:124”) linked to a substrate-binding peptide having binding specificity for metal (“SEQ ID NO:122”), or a composition of the invention formed from compound comprising the biofunctional composition covalently coupled to fatty acid. The respective coatings also include vancomycin bound thereto. The coated pins were then placed in a silicone tube containing liquid bacterial growth medium and inoculated with bacteria. After incubation, the pins were removed, and then the liquid growth medium was serially diluted. The serial dilutions were inoculated onto bacterial culture plates, the plates were incubated, and counted on the plates were bacterial colonies.
In this assay, test samples (biofunctional composition (Table 6, “BC”) or compositions 133, 134, 135, 136 139) each were used to coat a pin by incubating the test sample (in a range of from about 0.8 mM to about 1 mM) with 2.5 μl of a 10 mM vancomycin solution and PBS to a final volume of 250 μl in a microtube (3 pins per tube) for 60 minutes at room temperature with occasional agitation. In a piece of silicone tubing (1.5 mm inner diameter, 50 mm long), added is tryptic soy broth+0.2% glucose, the coated pin, and 103 colony forming units (cfu) of Staphylococcus aureus strain MZ100 in either a 20 μl inoculum, 40 μl inoculum, or 60 μl inoculum. The tubing is clamped closed, and the tubing is incubated for 37° C. for 3 hours. After 3 hours, serial dilutions (1:10, 1:100, 1:1000) were made of the culture media from each tubing, and 10 μl of the undiluted culture medium and of each dilution were spotted onto the bacterial culture plate. The bacterial culture plate was incubated overnight at 37° C., and then the cfus were counted. The results, a composite of different assay runs, are shown in Table 6 (“−” means no cfus; “many” means too many cfus to count, as they converge into one spot; “NT” means not tested).

**Q.** Which “retention of binding compared to substrate-binding peptide alone (SEQ ID NO:122)” value [1] does the source give for “AUD-AUD-K-AUD-AUD-AUD-AUD-SEQ ID NO: 122 ([Aun][Aun]K[Aun][Aun][Aun][Aun]SSHRTNHKKNNPKKKNKTRGSSGK) [Compound 123]” here?
**A.** The value was “significantly improved retention”.

**Q.** And the CMC [2]?
**A.** The CMC was 0.04 µM.

**Q.** With “Ac-Y-AUD-AUD-AUD-AUD-AUD-AUD-SEQ ID NO: 122 (Ac-Y[Aun][Aun][Aun][Aun][Aun][Aun]SSHRTNHKKNNPKKKNKTRGSSGK) [Compound 132]” as the substance, how does the “composition remained bound to the coated stents” value ([3]; 10% BSA+10 mM guanidinium chloride, 18 hours) read?
**A.** The value was “over 90%”.

**Q.** What about the “composition remained bound to the coated stents” value ([3]; human plasma, 7 days) of the same substance?
**A.** The value was “over 90%”.

**Q.** What about the CMC [2] of the same substance?
**A.** The CMC was 0.123 µM.

**Q.** And the EC50 [4]?
**A.** Its EC50 is 0.06 µM.

**Q.** What does the source list for “SSHRTNHKKNNPKKKNKTRGSSGK [Compound 130, AUD-AUD-AUD-AUD-AUD-AUD-SEQ ID NO: 122]”?
**A.** CMC [2]: 0.041 µM; EC50 [4]: 10 µM

**Q.** Which results are given for “SSHRTNHKKNNPKKKNKTRGSSGK [Compound 131, AUD-AUD-AUD-AUD-AUD-AUD-AUD-AUD-SEQ ID NO: 122]”?
**A.** CMC [2]: 0.37 µM; EC50 [4]: 0.1 µM

**Q.** What does the source list for “SSSCLIDMYGVCHNFDGAYDSSRG [Compound 134, AUD-AUD-AUD-AUD-SEQ ID NO: 124-linker-SEQ ID NO: 122]”?
**A.** cfu 1:10 ([5]; Volume 20 μl inoculum): —; cfu 1:100 ([5]; Volume 20 μl inoculum): —; cfu 1:1000 ([5]; Volume 20 μl inoculum): —; cfu undiluted ([5]; Volume 20 μl inoculum): —; cfu 1:10 ([5]; Volume 40 μl inoculum): 6 cfu; cfu 1:100 ([5]; Volume 40 μl inoculum): 1 cfu; cfu 1:1000 ([5]; Volume 40 μl inoculum): —; cfu undiluted ([5]; Volume 40 μl inoculum): many; cfu 1:10 ([5]; Volume 60 μl inoculum): 17 cfu; cfu 1:100 ([5]; Volume 60 μl inoculum): 5 cfu; cfu 1:1000 ([5]; Volume 60 μl inoculum): —; cfu undiluted ([5]; Volume 60 μl inoculum): many; EC50 [4]: 10 µM
